Patent US20250154169A1, “COMPOUNDS AND METHODS FOR MODULATING SPLICING” (REMIX THERAPEUTICS INC., priority 2021, published 2025)
pIC50: −log10 of the molar value. Read-outs that look alike come from different tables or passages of the source.

Key:
[1] = tested on: HTT mRNA; test: Splicing RT-qPCR assay, HTT canonical (CJ) and alternative (AJ) junction mRNA; assay type: cell-based, human; conditions: Homo sapiens, A673 or K562 cells, 24 hours compound treatment; for pIC50: read-out: HTT CJ (IC50, decrease in canonical junction mRNA); for AC50: read-out: HTT AJ (AC50, increase in alternative junction mRNA)
How it was run: (§1)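 One-step RT-qPCR on cell lysates, CJ and AJ isoforms quantified; housekeeping normalization GAPDH/GUSB (K562) or PPIA (A673). Cells: A673 in DMEM/10% FBS or K562 in IMDM/10% FBS. Compounds 11-pt 3-fold, top 10 uM, 24 h, 37 °C, 5% CO2.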

[2] = tested on: MYB mRNA; test: Splicing RT-qPCR assay, MYB canonical (CJ) and alternative (AJ) junction mRNA; assay type: cell-based, human; conditions: Homo sapiens, A673 or K562 cells, 24 hours compound treatment, RT-qPCR; for AC50: read-out: MYB AJ (AC50, increase in alternative junction mRNA); for pIC50: read-out: MYB CJ (IC50, decrease in canonical junction mRNA)
How it was run: as §1

| SMILES | pIC50 ([1]; 24 h) | AC50 [1] | AC50 ([2]; 24 h) | pIC50 ([2]; 24 h) | pIC50 [1] | AC50 [2] | pIC50 [2] |
| --- | --- | --- | --- | --- | --- | --- | --- |
| CN[C@@H]1CCN(c2ccc(C(=O)Nc3nc(OC)c4nn(C)cc4n3)c3nn(C)cc23)C1 [Compound 624, N-{7-methoxy-2-methylpyrazolo[4,3-d]pyrimidin-5-yl}-2-methyl-4-[(3R)-3-(methylamino)pyrrolidin-1-yl]indazole-7-carboxamide] | 5.00 to 6.00 | 1000 to 10000 nM | 1000 to 10000 nM | 5.00 to 6.00 |  |  |  |
| CN[C@@H]1CCN(c2ccc(C(=O)Nc3cn4cc(C)nc4c(OC4CC4)n3)c3nn(C)cc23)C1 [Compound 626, N-{8-cyclopropoxy-2-methylimidazo[1,2-a]pyrazin-6-yl}-2-methyl-4-[(3R)-3-(methylamino)pyrrolidin-1-yl]indazole-7-carboxamide] | 5.00 to 6.00 | 1000 to 10000 nM | 100 to 1000 nM | 6.00 to 7.00 |  |  |  |
| CCn1cc2c(N3CCC(NC4CC4)CC3)cc(Cl)c(C(=O)Nc3cc(F)c4nc(C)cn4c3)c2n1 [Compound 627] | 5.00 to 6.00 | 1000 to 10000 nM | 100 to 1000 nM | 6.00 to 7.00 |  |  |  |
| Cc1cn2cc(NC(=O)c3ccc(N4CCC(N5C6COCC65)C4)c4cn(C)nc34)cc(F)c2n1 (stereo not drawn) [Compound 629] |  | 1000 to 10000 nM |  |  | 5.00 to 6.00 | 1000 to 10000 nM | 5.00 to 6.00 |
| CNc1nc(NC(=O)c2ccc(N3CC[C@@H](NC)C3)c3cn(C)nc23)cn2cc(C)nc12 [Compound 631, 2-methyl-N-[2-methyl-8-(methylamino)imidazo[1,2-a]pyrazin-6-yl]-4-[(3R)-3-(methylamino)pyrrolidin-1-yl]indazole-7-carboxamide] | < 5.00 | > 10000 nM | 1000 to 10000 nM | 5.00 to 6.00 |  |  |  |
| Cc1cn2cc(NC(=O)c3ccc(N4CC[C@@H](NC5C6COCC65)C4)c4cn(C)nc34)cc(F)c2n1 (stereo partly drawn) [Compound 633] | 5.00 to 6.00 | > 10000 nM | 100 to 1000 nM | 6.00 to 7.00 |  |  |  |
| CCn1cc2c(N3CC[C@@H](NC)C3)cc(O)c(C(=O)Nc3cc(F)c4nc(C)cn4c3)c2n1 [Compound 635] | < 5.00 | > 10000 nM | 1000 to 10000 nM | 6.00 to 7.00 |  |  |  |
| CCn1cc2c(N3CC[C@@H](N(C)C)C3)cc(O)c(C(=O)Nc3cc(F)c4nc(C)cn4c3)c2n1 [Compound 637] | 5.00 to 6.00 | 1000 to 10000 nM | 1000 to 10000 nM | 6.00 to 7.00 |  |  |  |
| Cc1cn2cc(NC(=O)c3ccc(N4CC[C@@H](NCC5(O)CC5)C4)c4cn(C)nc34)cc(F)c2n1 [Compound 639] | < 5.00 | > 10000 nM | 100 to 1000 nM | 6.00 to 7.00 |  |  |  |
| CCC(=O)CN[C@@H]1CCN(c2ccc(C(=O)Nc3cc(F)c4nc(C)cn4c3)c3nn(C)cc23)C1 [Compound 641] | 5.00 to 6.00 | 1000 to 10000 nM | < 100 nM | > 7.00 |  |  |  |
| Cc1cn2cc(NC(=O)c3ccc(N4CC[C@@H](NC5(CO)CC5)C4)c4cn(C)nc34)cc(F)c2n1 [Compound 643] | < 5.00 | > 10000 nM | 100 to 1000 nM | 6.00 to 7.00 |  |  |  |
| Cc1cn2cc(NC(=O)c3ccc(N4CC[C@@H](NC5CC5(C)C)C4)c4cn(C)nc34)cc(F)c2n1 (stereo partly drawn) [Compound 645] | 5.00 to 6.00 | > 10000 nM | 100 to 1000 nM | 6.00 to 7.00 |  |  |  |
| Cc1cn2cc(NC(=O)c3ccc(N4CC[C@@H](NC5CC56CCOCC6)C4)c4cn(C)nc34)cc(F)c2n1 (stereo partly drawn) [Compound 649] | < 5.00 | > 10000 nM | 100 to 1000 nM | 6.00 to 7.00 |  |  |  |
| CN[C@@H]1CCN(c2ccc(C(=O)Nc3nc(OC)c4nc(C)cn4c3F)c3nn(C)cc23)C1 [Compound 651] | < 5.00 | > 10000 nM | > 10000 nM | < 5.00 |  |  |  |
| CCn1cc2c(N3CC[C@@H](NC)C3)cc(OC)c(C(=O)Nc3cc(F)c4nc(C)cn4c3)c2n1 [Compound 653] | < 5.00 | > 10000 nM | > 10000 nM | < 5.00 |  |  |  |
